In patent US10800811B2, “Pharmacologically active peptide compound, process for the preparation and use thereof” (Dipartimento di Scienze Biomediche e Biotecnologiche, priority 2016, dated 2020):
Structures can show the parent of a compound that is named as a salt. No end group written: not given here.

What was measured:
ALS patients = details: background statement, cited from earlier work
NSC34-SOD1-G93A cell = assay type: cell-based, mice
Procedure: The action of the said NHK1 peptide upon the complex VDAC1/SOD1-G93A, i.e. the complex formed by the interaction between protein VDAC1 and the mutant enzyme SOD1 (exactly the mutant G93A, where the glycine 93 was replaced by alanine) was evaluated by in vitro and in cellulo experiments, i.e. in the NSC34 cell line. NSC34 is a hybrid cell line obtained by fusing mice motor neurons with neuroblastoma cells. The NSC34 cell line is widely recognized as cell model of motor neurons and, following its transfection with mutated SOD1, it is considered a reference model of ALS [Cashman N R et al. Neuroblastoma×spinal cord (NSC) hybrid cell lines resemble developing motor neurons. Dev. Dyn. […]
The MTT assay is a colorimetric assay aimed to quantify the activity of dehydrogenase enzymes reducing 3-(4,5-dimethyltiazol-2-yl)-2,5-diphenyltetrazolium, yellow, to purple-blue formazan [Mosmann T., Rapid colorimetric assay for cellular growth and survival: application to proliferation and cytotoxicity assays. […]
Cells were seeded on 24-wells plates at a density of 80,000 cells/well, incubated for 24 hours and then transiently transfected with plasmid pEGFP-N1 expressing SOD1WT or SOD1-G93A or a mock. […] The MTT assay was read after 24 hours incubation. […]
The same vitality assay was repeated in the presence of the NHK1 peptide. […] The MTT assay was read after 24 hours incubation. […]

ALS model mice = details: background statement; cited from earlier work

Compound | Efficacy in ALS (ALS patients) | further results
O=S(=O)(c1cccc2cnccc12)N1CCCNCC1 [Fasudil hydrochloride] | inefficacy in ALS | –
Nc1nc2ccc(OC(F)(F)F)cc2s1 [Riluzole] | – | Extension of life expectation (ALS patients; ALS, statistical analysis): about three months
O=C([O-])[O-].[Li+].[Li+] [Lithium carbonate] | no influence on disease progression and survival | –
CCCN[C@@H]1CCc2nc(N)sc2C1 [Dexpramipexole] | lacks any efficacy in ALS patients | –
CCCCCCCCc1ccc(CCC(N)(CO)CO)cc1 [Fingolimid] | does not show any activity in ALS | –
IAAQLLAYYFT [NHK1, Isoleucine-Alanine-Alanine-Glutamine-Leucine-Leucine-Alanine-Tyrosine-Tyrosine-Phenylalanine-Threonine] | – | Toxicity for the cell (NSC34-SOD1-G93A cell): not toxic at all
C#Cc1cnc2nc(O)n(C(CC)CC)c2n1 [Tirasemvit] | – | Improvement of skeletal muscle strength (ALS model mice): did not confirm such ability
Cc1ccc(NC(=O)c2ccc(CN3CCN(C)CC3)cc2)cc1Nc1nc(-c2cccnc2)cs1 [Masitinib] | inefficacy in ALS | –
